± gives the expanded uncertainty stated by the source.
Test: mn = molality of the nth substance listed, in mol/kg
Conditions: 101.3 kPa, Liquid, Capillary tube (Ostwald / Ubbelohde) method

OC[C@H]1OC(O)C[C@@H](O)[C@@H]1O (stereo partly drawn) [2-deoxy-D-glucose] + O
viscosity [mPa·s]
Conditions | m1 = 0.04 | m1 = 0.06 | m1 = 0.0797 | m1 = 0.1001 | m1 = 0.1201 | m1 = 0.1399
288.15 K | 1.161 ± 0.041 | 1.171 ± 0.041 | 1.18 ± 0.041 | 1.191 ± 0.041 | 1.201 ± 0.041 | 1.213 ± 0.041
298.15 K | 0.907 ± 0.04 | 0.913 ± 0.04 | 0.919 ± 0.04 | 0.928 ± 0.04 | 0.936 ± 0.041 | 0.945 ± 0.041
308.15 K | 0.73 ± 0.04 | 0.736 ± 0.04 | 0.742 ± 0.04 | 0.749 ± 0.04 | 0.754 ± 0.04 | 0.761 ± 0.04
318.15 K | 0.605 ± 0.04 | 0.609 ± 0.04 | 0.615 ± 0.04 | 0.619 ± 0.04 | 0.624 ± 0.04 | 0.629 ± 0.04

O=C[C@H](O)[C@@H](O)[C@@H](O)[C@H](O)CO [(+)-galactose] + O
viscosity [mPa·s]
Conditions | m1 = 0.0402 | m1 = 0.0601 | m1 = 0.0792 | m1 = 0.0992 | m1 = 0.1199 | m1 = 0.139 | m1 = 0.1594 | m1 = 0.1793
288.15 K | 1.158 ± 0.041 | 1.168 ± 0.041 | 1.179 ± 0.041 | 1.19 ± 0.041 | 1.203 ± 0.041 | 1.214 ± 0.041 | 1.224 ± 0.041 | 1.237 ± 0.041
298.15 K | 0.905 ± 0.041 | 0.913 ± 0.041 | 0.92 ± 0.041 | 0.929 ± 0.041 | 0.938 ± 0.041 | 0.945 ± 0.041 | 0.953 ± 0.041 | 0.961 ± 0.041
308.15 K | – | 0.737 ± 0.04 | 0.743 ± 0.04 | 0.749 ± 0.04 | 0.755 ± 0.04 | 0.76 ± 0.04 | 0.766 ± 0.04 | 0.773 ± 0.04
318.15 K | 0.606 ± 0.04 | 0.611 ± 0.04 | 0.615 ± 0.04 | 0.618 ± 0.04 | 0.624 ± 0.04 | 0.626 ± 0.04 | 0.631 ± 0.04 | 0.635 ± 0.04

O=C[C@H](O)[C@@H](O)[C@H](O)[C@H](O)CO [D-glucose] + O
viscosity [mPa·s]
Conditions | m1 = 0.04 | m1 = 0.0599 | m1 = 0.0797 | m1 = 0.0999 | m1 = 0.1197 | m1 = 0.14 | m1 = 0.1598 | m1 = 0.1797
288.15 K | 1.161 ± 0.041 | – | 1.181 ± 0.041 | 1.193 ± 0.041 | 1.204 ± 0.041 | 1.216 ± 0.041 | 1.227 ± 0.041 | 1.241 ± 0.041
298.15 K | 0.907 ± 0.04 | 0.915 ± 0.04 | 0.924 ± 0.04 | 0.932 ± 0.04 | 0.94 ± 0.041 | 0.947 ± 0.041 | 0.954 ± 0.041 | 0.961 ± 0.041
308.15 K | 0.733 ± 0.04 | 0.737 ± 0.04 | 0.744 ± 0.04 | 0.751 ± 0.04 | 0.756 ± 0.04 | 0.762 ± 0.04 | 0.768 ± 0.04 | 0.774 ± 0.04
318.15 K | 0.606 ± 0.04 | 0.61 ± 0.04 | 0.614 ± 0.04 | 0.62 ± 0.04 | 0.624 ± 0.04 | 0.629 ± 0.04 | 0.636 ± 0.04 | 0.64 ± 0.04

O=C[C@H](O)[C@@H](O)[C@H](O)CO [D-xylose] + O
viscosity [mPa·s]
Conditions | m1 = 0.0399 | m1 = 0.0601 | m1 = 0.0797 | m1 = 0.0993 | m1 = 0.1195 | m1 = 0.1391 | m1 = 0.1583 | m1 = 0.1783
288.15 K | 1.155 ± 0.041 | 1.163 ± 0.041 | 1.173 ± 0.041 | 1.181 ± 0.041 | 1.188 ± 0.041 | 1.197 ± 0.041 | 1.206 ± 0.041 | 1.214 ± 0.041
298.15 K | 0.901 ± 0.04 | 0.909 ± 0.04 | 0.914 ± 0.04 | 0.92 ± 0.04 | 0.927 ± 0.04 | 0.932 ± 0.04 | 0.937 ± 0.041 | 0.944 ± 0.041
308.15 K | 0.727 ± 0.04 | 0.733 ± 0.04 | 0.739 ± 0.04 | 0.742 ± 0.04 | 0.747 ± 0.04 | 0.751 ± 0.04 | 0.756 ± 0.04 | 0.762 ± 0.04
318.15 K | 0.603 ± 0.04 | 0.607 ± 0.04 | 0.61 ± 0.04 | 0.614 ± 0.04 | 0.618 ± 0.04 | 0.623 ± 0.04 | 0.626 ± 0.04 | 0.63 ± 0.04

From the NIST ThermoML archive (doi:10.1016/j.jct.2016.07.020)
